The target of assay [1] is full-length wt-BTK enzyme (Homo sapiens (Human), UniProt Q06187). In words: Biochemical kinase assay wt-BTK (IMAP). Put shortly: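 Compound and enzyme (final 1.2 nM) were pre-incubated for 1 h at RT, after which the reaction was started with 4 μM ATP plus 50 nM fluorescein-MBP substrate peptide. After 2 h in the dark, the IMAP progressive binding reagent stopped the reaction, and phosphorylation was read by fluorescence polarization.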

The target in a further assay is BTK T474I (Homo sapiens (Human), UniProt Q06187, T474I). Description: Binding kinetics measurements (Surface Plasmon Resonance) on BTK T474I. Conditions: for pKd: binding affinity by Surface Plasmon Resonance (SPR); for Tau (h) BTK T474I (Act): target residence time, SPR. The method in brief: (§1)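 Using streptavidin-captured kinase, binding was followed by SPR in 1% DMSO buffer at 22° C and 30 μl/min. Five consecutive compound injections spanned 3.16-316 nM, preceded by a blank run; data were double referenced before kinetic fitting.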
BTK T474I, sequence (Q06187 whole entry T474I): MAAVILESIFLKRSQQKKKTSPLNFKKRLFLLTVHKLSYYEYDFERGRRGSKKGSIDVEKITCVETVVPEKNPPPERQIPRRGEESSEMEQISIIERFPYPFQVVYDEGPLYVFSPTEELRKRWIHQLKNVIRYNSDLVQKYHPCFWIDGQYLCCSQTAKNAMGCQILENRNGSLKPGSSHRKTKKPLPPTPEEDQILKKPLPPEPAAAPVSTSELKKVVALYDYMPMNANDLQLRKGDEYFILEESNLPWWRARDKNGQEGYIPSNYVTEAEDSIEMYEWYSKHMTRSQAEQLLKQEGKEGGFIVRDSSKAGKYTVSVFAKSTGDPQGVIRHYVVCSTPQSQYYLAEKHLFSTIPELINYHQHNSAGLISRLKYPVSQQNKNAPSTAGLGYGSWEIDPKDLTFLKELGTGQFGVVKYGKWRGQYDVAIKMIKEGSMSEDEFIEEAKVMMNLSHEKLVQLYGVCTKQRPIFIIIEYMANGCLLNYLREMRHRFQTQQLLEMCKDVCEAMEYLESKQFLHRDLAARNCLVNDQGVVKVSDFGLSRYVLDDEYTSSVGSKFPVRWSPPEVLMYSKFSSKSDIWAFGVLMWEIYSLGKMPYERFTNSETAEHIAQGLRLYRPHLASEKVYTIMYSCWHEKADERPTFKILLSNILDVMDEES

The subject of assay [2] is wt-REC-1 mantle cell lymphoma cells. Description: Cell proliferation assay wt-REC-1 (ATPlite, 72 hours). The assay is classed as cell-based. The note with it: 72 h; read-out: IC50 wt-REC-1. Put shortly:
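Luminescent viability read over 72 h, start-of-incubation signal recorded separately to separate growth from cell death. Percentage growth referenced to compound-free 0.3% DMSO wells; IC50 from 4-parameter logistic fit.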
(Cellular ATP, detected with luciferase, serves as a proxy for viable cell number.)

A further assay addresses BTK T474S (Homo sapiens (Human), UniProt Q06187, T474S). Description: Binding kinetics measurements (Surface Plasmon Resonance) on BTK T474S. Conditions: for residence time: SPR binding kinetics, BTK T474S, read-out: Tau (h) BTK T474S (Act), target residence time (converted); for pKd: binding affinity by Surface Plasmon Resonance (SPR). The method in brief: as §1
Another assay concerns the target wt-BTK (Homo sapiens (Human), UniProt Q06187). In words: Binding kinetics measurements (Surface Plasmon Resonance) on wt-BTK. The note with it: for pKd: binding affinity by Surface Plasmon Resonance (SPR); for Tau (h) wt-BTK (Act): target residence time, SPR. The method in brief: as §1
For assay [3], the system named is wt-TMD8 diffuse large B-cell lymphoma cells. Description: Cell proliferation assay wt-TMD8 (ATPlite, 120 hours). The assay is classed as cell-based. The note with it: B-cell; wt-TMD8 cells, 120 hours, ATPlite; read-out: IC50 wt-TMD8. Put shortly: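 Readout is percentage growth from ATPlite 1Step luminescence after 5 days (120 h) compound treatment of wt-TMD8 lymphoma cells (1600/well, RPMI-1640 + 10% FBS). Time-zero signal separates growth inhibition from cell kill; 0.3% DMSO wells without compound define maximal growth.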

The next assay concerns REC-1 T474I cell lines. In words: Cell proliferation assay REC-1 BTK T474I knock-in cells (ATPlite, 72 hours). The assay is classed as cell-based. The note with it: Homo sapiens, Rec1; 72 hours; read-out: IC50 REC-1 T474I. Put shortly:
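REC-1 cells carrying CRISPR knock-in mutant BTK, single-cell cloned and sequence-confirmed, were exposed to compound for 72 h and read by ATPlite luminescence. Percentage growth was calculated against the signal at the start of incubation and against untreated 0.3% DMSO wells as maximum growth.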

The next assay addresses BTK T316A (Homo sapiens (Human), UniProt Q06187, T316A). Description: Binding kinetics measurements (Surface Plasmon Resonance) on BTK T316A. Conditions: for pKd: binding affinity by Surface Plasmon Resonance (SPR); for Tau (h) BTK T316A (Act): target residence time, SPR. Put shortly:
as §1

Assay [4] concerns the target full-length BTK C481S enzyme (Homo sapiens (Human), UniProt Q06187, C481S). In words: Biochemical kinase assay BTK C481S (IMAP). The method in brief:
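IC50 values come from IMAP fluorescence polarization after quenching with progressive binding solution. The reaction ran 2 h at room temperature in the dark with 1.2 nM full-length C481S enzyme, 7 μM ATP and 50 nM fluorescein-labelled MBP-derived peptide, following a 1 h dark pre-incubation of compound with enzyme.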

The next assay addresses BTK C481S (Homo sapiens (Human), UniProt Q06187, C481S). Description: Binding kinetics measurements (Surface Plasmon Resonance) on BTK C481S. The note with it: for pKd: binding affinity by Surface Plasmon Resonance (SPR); for Tau (h) BTK C418S (Act): target residence time for BTK C481S, SPR. The method in brief: as §1

pIC50, pKd: −log10 of the molar value. Some results are limits rather than exact numbers.

full-length BTK C481S enzyme, sequence (Q06187 whole entry C481S): as the sequence (Q06187 whole entry T474I) above, with I474T, C481S counted along it
BTK C481S, sequence (Q06187 whole entry C481S): as the sequence (Q06187 whole entry T474I) above, with I474T, C481S counted along it
full-length wt-BTK enzyme, sequence (Q06187 whole entry): as the sequence (Q06187 whole entry T474I) above, with I474T counted along it
wt-BTK, sequence (Q06187 whole entry): as the sequence (Q06187 whole entry T474I) above, with I474T counted along it
BTK T316A, sequence (Q06187 whole entry T316A): as the sequence (Q06187 whole entry T474I) above, with T316A, I474T counted along it
BTK T474S, sequence (Q06187 whole entry T474S): as the sequence (Q06187 whole entry T474I) above, with I474S counted along it

One may read the pIC50 as the IC50 on a negative log10 scale, so that one unit is a factor of ten. One may read the pKd as −log10 of the Kd, conventionally taken in molar units. A higher pKd goes with a low Kd. Regarding `C[C@@H]1CC(=O)N[C@@H]2CCC[C@H](C2)n2nc(-c3ccc(C(=O)Nc4cc(C(F)(F)F)ccn4)cc3)c3c(N)ncc(c32)/C=C/CCO1` [Example 157], the pIC50 in assay [1] was over 8.30; in [2] it was over 7.00; in assay [3] it was over 7.00; with REC-1 T474I cell lines, over 7.00; in assay [4], over 8.30. Moreover, the pKd on BTK T474I is over 8.70; at BTK T474S, over 8.52; at wt-BTK, over 8.30; at BTK T316A, over 8.30; at BTK C481S it was over 8.30. Further, the “Tau (h) BTK T474I (Act)” value on BTK T474I is given as 3.34 h. Also, at BTK T474S, the residence time was 1.47 h. Further, the “Tau (h) wt-BTK (Act)” value at wt-BTK amounted to 5.15 h. For the same molecule, at BTK T316A, the “Tau (h) BTK T316A (Act)” value is recorded as 5.27 h. The “Tau (h) BTK C418S (Act)” value at BTK C481S is recorded as 2.42 h.
Turning to `C[C@@H]1CC(=O)N[C@@H]2CCC[C@H](C2)n2nc(-c3ccc(C(=O)Nc4cc(C#N)ccn4)cc3)c3c(N)ncc(c32)/C=C/CCO1` [Example 162], the pIC50 in assay [1] is over 8.30; in assay [2], over 7.00; in [3] it was over 7.00; in the assay on REC-1 T474I cell lines, over 7.00; in assay [4], over 8.30. The “Tau (h) BTK T474I (Act)” value on BTK T474I is 2.05 h. Also, the residence time on BTK T474S was 2.02 h. Besides, the “Tau (h) wt-BTK (Act)” value on wt-BTK stood at 3.41 h. The “Tau (h) BTK T316A (Act)” value on BTK T316A is recorded as 7.64 h. On BTK C481S, the “Tau (h) BTK C418S (Act)” value worked out at 6.32 h.
For the molecule `N#Cc1ccnc(NC(=O)c2ccc(-c3nn4c5c(cnc(N)c35)/C=C/CCCCCC(=O)N[C@@H]3CCC[C@@H]4C3)cc2)c1` [Example 163], the pIC50 in assay [1] is over 8.30; in [2], over 7.00; in assay [3], over 7.00; in the assay on REC-1 T474I cell lines, over 7.00; in assay [4], over 8.30. In addition, the “Tau (h) BTK T474I (Act)” value on BTK T474I is on record as 4.37 h. In addition, the residence time on BTK T474S is 6.74 h. For the same molecule, the “Tau (h) wt-BTK (Act)” value at wt-BTK is on record as over 24 h. For the same molecule, the “Tau (h) BTK T316A (Act)” value at BTK T316A is 4.67 h. The “Tau (h) BTK C418S (Act)” value at BTK C481S is listed as 3.51 h.
For the molecule `N#Cc1ccnc(NC(=O)c2ccc(-c3nn4c5c(cnc(N)c35)/C=C/COCCC(=O)N[C@@H]3CCC[C@@H]4C3)cc2)c1` [Example 164], the pIC50 in assay [1] is over 8.30; in [2] it was over 7.00; in assay [3] it was over 7.00; with REC-1 T474I cell lines, over 7.00; in [4], over 8.30. Further, the “Tau (h) BTK T474I (Act)” value on BTK T474I is 0.90 h. Moreover, the residence time on BTK T474S is 6.88 h. The “Tau (h) wt-BTK (Act)” value at wt-BTK was 10.55 h. Also, the “Tau (h) BTK T316A (Act)” value on BTK T316A worked out at 3.41 h. On BTK C481S, the “Tau (h) BTK C418S (Act)” value is on record as over 24 h.
`Nc1ncc2c3c1c(-c1ccc(C(=O)Nc4cc(C(F)(F)F)ccn4)cc1)nn3[C@@H]1CC[C@H](C1)NC(=O)CCCCC/C=C/2` [Example 168]: the negative logarithm of the IC50 (pIC50) is over 8.30 in assay [1]; over 7.00 in [2]; over 7.00 in [3]; over 7.00 with REC-1 T474I cell lines; over 8.30 in assay [4]. Moreover, at BTK T474I, the “Tau (h) BTK T474I (Act)” value is listed as 3.14 h. Besides, the residence time at BTK T474S is over 24 h. Further, on wt-BTK, the “Tau (h) wt-BTK (Act)” value was determined as 3.66 h. Moreover, the “Tau (h) BTK T316A (Act)” value at BTK T316A is given as 3.81 h. At BTK C481S, the “Tau (h) BTK C418S (Act)” value came out at 6.64 h.
In the case of `Nc1ncc2c3c1c(-c1ccc(C(=O)Nc4cc(C(F)(F)F)ccn4)cc1)nn3[C@@H]1CC[C@H](C1)NC(=O)CCOCC/C=C/2` [Example 169], the pIC50 in [1] is over 8.30; in assay [2] it was over 7.00; in assay [3], over 7.00; in the assay on REC-1 T474I cell lines, over 7.00; in assay [4], over 8.30. In addition, the “Tau (h) BTK T474I (Act)” value at BTK T474I amounted to 3.69 h. For the same molecule, the residence time at BTK T474S was 2.56 h. Further, the “Tau (h) wt-BTK (Act)” value at wt-BTK is given as 2.34 h. The “Tau (h) BTK T316A (Act)” value on BTK T316A came to 1.77 h. Besides, the “Tau (h) BTK C418S (Act)” value at BTK C481S worked out at 6.60 h.
As to `Nc1ncc2c3c1c(-c1ccc(C(=O)Nc4cc(C(F)(F)F)ccn4)cc1)nn3[C@@H]1CC[C@H](C1)NC(=O)CCOC/C=C/2` [Example 170], the pIC50 was over 8.30 in [1]; over 7.00 in assay [2]; over 7.00 in assay [3]; over 7.00 with REC-1 T474I cell lines; over 8.30 in assay [4]. Also, the “Tau (h) BTK T474I (Act)” value on BTK T474I came out at 2.54 h. Further, on BTK T474S, the residence time was 3.15 h. In addition, the “Tau (h) wt-BTK (Act)” value on wt-BTK amounted to 2.05 h. Moreover, the “Tau (h) BTK T316A (Act)” value at BTK T316A is reported as 1.58 h. Moreover, the “Tau (h) BTK C418S (Act)” value at BTK C481S worked out at 2.76 h.
Regarding `C[C@@H]1C[C@@H](C)n2nc(-c3ccc(C(=O)Nc4cc(C(F)(F)F)ccn4)cc3)c3c(N)ncc(c32)/C=C/CCCCCC(=O)N1` [Example 172], the pIC50 was over 8.30 in [1]; over 7.00 in [2]; over 7.00 in assay [3]; over 7.00 in the assay with REC-1 T474I cell lines; over 8.30 in [4]. For the same molecule, the pKd is over 8.70 at BTK T474I; over 8.52 at BTK T474S; over 8.30 on wt-BTK; over 8.30 at BTK T316A; over 8.30 on BTK C481S. Also, the “Tau (h) BTK T474I (Act)” value on BTK T474I was found to be 2.35 h. Also, the residence time on BTK T474S was 18.9 h. Also, the “Tau (h) wt-BTK (Act)” value at wt-BTK was 4.83 h. Besides, on BTK T316A, the “Tau (h) BTK T316A (Act)” value came to 2.18 h. Also, at BTK C481S, the “Tau (h) BTK C418S (Act)” value is 4.28 h.
